Experimental data published in patent US20230416330A1, “Optimized GIP Peptide Analogues” (Antag Therapeutics ApS, priority 2019, published 2023).
Starred links: 1 amine or outer side, 2 acyl side, 3 side chain; linkers in the order of their positions; H or OH if unused. Positions of bridges follow the written chain, without caps; N, C: chain ends. Non-standard residues stand in square brackets, D forms with d. Residues, ends and D or L forms follow the SMILES beside them. Groups on a side chain read outwards from the residue. Chains are numbered I, II in the order given. No end group written: not given here. *: point of attachment. C18 diacid = O=C(O)CCCCCCCCCCCCCCCCC(=O)*; C16 diacid = O=C(O)CCCCCCCCCCCCCCC(=O)*; γGlu = O=C(O)[C@H](CCC(=O)[*:2])N[*:1]; AEEA = NCCOCCOCC(=O)O; Aib = CC(C)(N)C(=O)O

What was measured:
[1] = Solubility by visual inspection of peptide solutions; format: physicochemical
Summary of the method: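 Peptides dissolved at 1, 5, 7.5 or 15 mg/ml in 50 mM sodium phosphate pH 7.4 or water adjusted to pH 7.4 with NaOH, with gentle mixing. Immediate solubility judged visually as a clear, colorless solution.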

[2] = Physical stability: fibril formation in Thioflavin T (ThT) assay with agitation; format: physicochemical; conditions: 25° C., agitation
Summary of the method: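 Peptides at 1, 5, 7.5 or 15 mg/ml in 50 mM sodium phosphate pH 7.4 or in water adjusted to pH 7.4 with NaOH, filtered 0.22 μm, with ThT added. Wells held a 3 mm silica bead under 300 rpm orbital agitation at 25° C. Emission at 486 nm tracked continuously; lag time = 10% of transition above baseline.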

human GIP receptor = target: T1, human GIP receptor (human, UniProt P48546 22-466); experiment: cell-based or functional assay
T1 sequence (looked up): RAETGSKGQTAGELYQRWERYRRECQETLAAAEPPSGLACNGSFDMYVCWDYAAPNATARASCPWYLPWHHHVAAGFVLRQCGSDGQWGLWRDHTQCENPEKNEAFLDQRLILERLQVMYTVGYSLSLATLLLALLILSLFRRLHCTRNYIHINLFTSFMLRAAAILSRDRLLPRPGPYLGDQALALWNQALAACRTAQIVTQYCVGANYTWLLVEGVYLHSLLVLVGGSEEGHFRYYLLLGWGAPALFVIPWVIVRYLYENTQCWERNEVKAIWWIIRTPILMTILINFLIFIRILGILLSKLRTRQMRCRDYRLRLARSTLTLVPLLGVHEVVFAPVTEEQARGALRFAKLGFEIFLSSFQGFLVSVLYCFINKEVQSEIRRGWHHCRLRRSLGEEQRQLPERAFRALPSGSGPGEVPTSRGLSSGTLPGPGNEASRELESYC

Molecule: I: EGTFISEYSI[Aib]LEKIKQQEFVEWLLAQKPSSGAPPPS-OH / II: {C16 diacid}-GGGGS (amide I:16-II:C) [AT722]
- Visual appearance ([1]; 1 mg/ml, TFA, Phosphate (7.4)): Clear
- Visual appearance ([1]; 7.5 mg/ml, Na, MilliQ (8)): Clear
- Visual appearance ([1]; 15 mg/ml, Na, MilliQ (8)): Clear
- Avr lag time (h) ([2]; 1 mg/ml, TFA, Phosphate (7.4)): fnd (Fnd = fibrils not detected within experiment time (96 hours) with agitation.)
- Avr lag time (h) ([2]; 7.5 mg/ml, Na, MilliQ (8)): fnd (Fnd = fibrils not detected within experiment time (96 hours) with agitation.)
- Avr lag time (h) ([2]; 15 mg/ml, Na, MilliQ (8)): fnd (Fnd = fibrils not detected within experiment time (96 hours) with agitation.)

Molecule: CC[C@H](C)[C@H](NC(=O)[C@H](CO)NC(=O)[C@H](Cc1ccc(O)cc1)NC(=O)[C@H](CC(=O)O)NC(=O)[C@H](CO)NC(=O)[C@@H](NC(=O)[C@H](Cc1ccccc1)NC(=O)[C@@H](NC(=O)CNC(=O)[C@@H](N)CCC(=O)O)[C@@H](C)O)[C@@H](C)CC)C(=O)N[C@@H](C)C(=O)N[C@@H](CCSC)C(=O)N[C@@H](CC(=O)O)C(=O)N[C@@H](CCCCN)C(=O)N[C@H](C(=O)N[C@@H](CCCCNC(=O)CCCCCCCCCCCCCCC(=O)O)C(=O)N[C@@H](CCC(N)=O)C(=O)N[C@@H](CCC(N)=O)C(=O)N[C@@H](C)C(=O)N[C@@H](Cc1ccccc1)C(=O)N[C@H](C(=O)N[C@@H](CCC(=O)O)C(=O)N[C@@H](Cc1c[nH]c2ccccc12)C(=O)N[C@@H](CC(C)C)C(=O)N[C@@H](CC(C)C)C(=O)N[C@@H](C)C(=O)N[C@@H](CCC(N)=O)C(=O)N[C@@H](CCCCN)C(=O)N1CCC[C@H]1C(=O)N[C@@H](CO)C(=O)N[C@@H](CO)C(=O)NCC(=O)N[C@@H](C)C(=O)N1CCC[C@H]1C(=O)N1CCC[C@H]1C(=O)N1CCC[C@H]1C(=O)N[C@@H](CO)C(=O)O)C(C)C)[C@@H](C)CC [AT745] (H-EGTFISDYSIAMDKIK(C16 diacid)QQAFVEWLLAQKPSSGAPPPS-OH; N-terminus assumed)
- Visual appearance ([1]; 1 mg/ml, TFA, Phosphate (7.4)): Clear
- Avr lag time ([2]; 1 mg/ml, TFA, Phosphate (7.4)): <24 h

Molecule: CC[C@H](C)[C@H](NC(=O)[C@H](CCCCN)NC(=O)[C@H](CCC(=O)O)NC(=O)[C@H](CC(C)C)NC(=O)C(C)(C)NC(=O)[C@@H](NC(=O)[C@H](CO)NC(=O)[C@H](Cc1ccc(O)cc1)NC(=O)[C@H](CCC(=O)O)NC(=O)[C@H](CO)NC(=O)[C@@H](NC(=O)[C@H](Cc1ccccc1)NC(=O)[C@@H](NC(=O)CNC(=O)[C@@H](N)CCC(=O)O)[C@@H](C)O)[C@@H](C)CC)[C@@H](C)CC)C(=O)N[C@@H](CCCCNC(=O)COCCOCCNC(=O)COCCOCCNC(=O)CC[C@H](NC(=O)CCCCCCCCCCCCCCCCC(=O)O)C(=O)O)C(=O)N[C@@H](CCC(N)=O)C(=O)N[C@@H](CCC(N)=O)C(=O)N[C@@H](CCC(=O)O)C(=O)N[C@@H](Cc1ccccc1)C(=O)N[C@H](C(=O)N[C@@H](CCC(=O)O)C(=O)N[C@@H](Cc1c[nH]c2ccccc12)C(=O)N[C@@H](CC(C)C)C(=O)N[C@@H](CC(C)C)C(=O)N[C@@H](C)C(=O)N[C@@H](CCC(N)=O)C(=O)N[C@@H](CCCCN)C(=O)N1CCC[C@H]1C(=O)N[C@@H](CO)C(=O)N[C@@H](CO)C(=O)NCC(=O)N[C@@H](C)C(=O)N1CCC[C@H]1C(=O)N1CCC[C@H]1C(=O)N1CCC[C@H]1C(=O)N[C@@H](CO)C(N)=O)C(C)C [AT714] (H-EGTFISEYSI[Aib]LEKIK([AEEA-AEEA-γGlu-C18 diacid])QQEFVEWLLAQKPSSGAPPPS-NH2; N-terminus assumed)
- Visual appearance ([1]; 1 mg/ml, TFA, Phosphate (7.4)): Clear
- Avr lag time (h) ([2]; 1 mg/ml, TFA, Phosphate (7.4)): fnd (Fnd = fibrils not detected within experiment time (96 hours) with agitation.)

B1: AT720 (peptide)
peptide: EGTFISEYSI[Aib]LEKIK([Aib-C16 diacid])QQEFVEWLLAQKPSSGAPPPS-OH
modifications: N-terminus assumed
SMILES: CC[C@H](C)[C@H](NC(=O)[C@H](CCCCN)NC(=O)[C@H](CCC(=O)O)NC(=O)[C@H](CC(C)C)NC(=O)C(C)(C)NC(=O)[C@@H](NC(=O)[C@H](CO)NC(=O)[C@H](Cc1ccc(O)cc1)NC(=O)[C@H](CCC(=O)O)NC(=O)[C@H](CO)NC(=O)[C@@H](NC(=O)[C@H](Cc1ccccc1)NC(=O)[C@@H](NC(=O)CNC(=O)[C@@H](N)CCC(=O)O)[C@@H](C)O)[C@@H](C)CC)[C@@H](C)CC)C(=O)N[C@@H](CCCCNC(=O)C(C)(C)NC(=O)CCCCCCCCCCCCCCC(=O)O)C(=O)N[C@@H](CCC(N)=O)C(=O)N[C@@H](CCC(N)=O)C(=O)N[C@@H](CCC(=O)O)C(=O)N[C@@H](Cc1ccccc1)C(=O)N[C@H](C(=O)N[C@@H](CCC(=O)O)C(=O)N[C@@H](Cc1c[nH]c2ccccc12)C(=O)N[C@@H](CC(C)C)C(=O)N[C@@H](CC(C)C)C(=O)N[C@@H](C)C(=O)N[C@@H](CCC(N)=O)C(=O)N[C@@H](CCCCN)C(=O)N1CCC[C@H]1C(=O)N[C@@H](CO)C(=O)N[C@@H](CO)C(=O)NCC(=O)N[C@@H](C)C(=O)N1CCC[C@H]1C(=O)N1CCC[C@H]1C(=O)N1CCC[C@H]1C(=O)N[C@@H](CO)C(=O)O)C(C)C
- nM (Kb, Gaddum assay, cAMP) (human GIP receptor): 0.29 nM
- pKb (Gaddum assay, cAMP) (human GIP receptor): 9.5

B2: AT719 (peptide)
peptide: EGTFISDYSIAMDKIK(C16 diacid)QQDFVNWLLAQK-OH
modifications: N-terminus assumed
SMILES: CC[C@H](C)[C@H](NC(=O)[C@H](CO)NC(=O)[C@H](Cc1ccc(O)cc1)NC(=O)[C@H](CC(=O)O)NC(=O)[C@H](CO)NC(=O)[C@@H](NC(=O)[C@H](Cc1ccccc1)NC(=O)[C@@H](NC(=O)CNC(=O)[C@@H](N)CCC(=O)O)[C@@H](C)O)[C@@H](C)CC)C(=O)N[C@@H](C)C(=O)N[C@@H](CCSC)C(=O)N[C@@H](CC(=O)O)C(=O)N[C@@H](CCCCN)C(=O)N[C@H](C(=O)N[C@@H](CCCCNC(=O)CCCCCCCCCCCCCCC(=O)O)C(=O)N[C@@H](CCC(N)=O)C(=O)N[C@@H](CCC(N)=O)C(=O)N[C@@H](CC(=O)O)C(=O)N[C@@H](Cc1ccccc1)C(=O)N[C@H](C(=O)N[C@@H](CC(N)=O)C(=O)N[C@@H](Cc1c[nH]c2ccccc12)C(=O)N[C@@H](CC(C)C)C(=O)N[C@@H](CC(C)C)C(=O)N[C@@H](C)C(=O)N[C@@H](CCC(N)=O)C(=O)N[C@@H](CCCCN)C(=O)O)C(C)C)[C@@H](C)CC
- nM (Kb, Gaddum assay, cAMP) (human GIP receptor): 7.6 nM
- pKb (Gaddum assay, cAMP) (human GIP receptor): 8.1
